Here are results for eleven compounds from patent US5516777A, “Condensed pyrazole derivatives, and androgen inhibitor” (Otsuka Pharmaceutical Co., Ltd., priority 1992, dated 1996).

A short description of data set [1]: Oral absorption (blood level after oral administration). The following applies: Wistar male rat, 30 mg/ml/kg, serum. It counts as in vivo. As to the method: After administration, the rat is fixed on a plate with nails and strings. […] The serum was obtained by centrifuging with a blood serum separating tube ([…] tube). To 100 μl of the serum thus obtained was added 300 μl of methanol, and the mixture was centrifuged. Next, 50 μl of the supernatant was applied to a high-performance liquid chromatography, and the blood level of the compound was measured. Conditions of the high-performance liquid chromatography are as follows: Column: […] 300, 4.6 mm diameter and 150 mm length Eluent: 48% CH3 CN-0.01% TFA Flow rate: 1 ml/minute Detection: UV 290 nm Sensitivity: 0.01 AUFS Colume temperature: 50° C. As Comparative Example 10, the compound expressed in the following chemical formula disclosed in U.S. Pat.

For data set [2], the target named is T1, rat prostate androgen receptor (Rattus norvegicus, UniProt P15207).
T1 sequence (P15207 1-902): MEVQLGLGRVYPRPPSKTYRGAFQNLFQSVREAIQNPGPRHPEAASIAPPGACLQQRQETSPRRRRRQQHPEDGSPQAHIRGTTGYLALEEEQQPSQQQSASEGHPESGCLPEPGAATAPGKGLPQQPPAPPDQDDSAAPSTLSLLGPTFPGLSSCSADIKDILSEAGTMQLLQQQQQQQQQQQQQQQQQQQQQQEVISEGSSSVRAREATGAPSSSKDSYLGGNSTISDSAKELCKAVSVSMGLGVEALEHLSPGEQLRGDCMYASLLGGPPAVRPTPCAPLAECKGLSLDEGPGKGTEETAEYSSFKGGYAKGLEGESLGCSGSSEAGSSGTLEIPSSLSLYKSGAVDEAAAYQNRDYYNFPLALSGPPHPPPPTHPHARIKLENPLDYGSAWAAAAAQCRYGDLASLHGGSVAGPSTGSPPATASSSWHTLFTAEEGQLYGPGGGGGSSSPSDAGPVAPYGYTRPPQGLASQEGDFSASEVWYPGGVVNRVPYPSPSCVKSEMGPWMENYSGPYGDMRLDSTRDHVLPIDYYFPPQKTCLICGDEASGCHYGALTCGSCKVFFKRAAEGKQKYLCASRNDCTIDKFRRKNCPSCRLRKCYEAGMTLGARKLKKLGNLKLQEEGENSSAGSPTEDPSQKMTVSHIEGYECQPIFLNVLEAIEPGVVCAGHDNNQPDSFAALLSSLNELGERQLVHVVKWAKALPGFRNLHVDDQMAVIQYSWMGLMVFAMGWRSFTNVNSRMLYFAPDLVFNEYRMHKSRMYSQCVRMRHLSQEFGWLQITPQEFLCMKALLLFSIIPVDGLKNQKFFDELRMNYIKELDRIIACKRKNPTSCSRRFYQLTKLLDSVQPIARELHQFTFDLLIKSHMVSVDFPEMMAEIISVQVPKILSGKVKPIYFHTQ
Conditions: 1 nM ^3 H-mibolerone, 20 hours at 0° C., rat ventral prostate cytosol; read-out: Inhibitory activity on mibolerone specific binding [IC50 (M)].
Protocol: Assay of inhibitory activity to binding of ^3 H-mibolerone on rat prostate androgen receptor
(1) Preparation of Cytosol from Rat Prostate
The rats were killed 24 hours after castration, and the ventral prostate glands were removed, and was gently homogenized, with three volume of buffer solution A (1.5 mM EDTA, 2 mM dithiothreitol, 10 mM molybdate sodium, 10% by volume of glycerol, 10 mM NaF, 25 mM phosphate sodium, pH 7.2) on ice-water bath, in Polytron, and Potter type homogenizer. The obtained homogenate was filtrated through double gauze, and centrifuged at 105,000×g for 60 minutes at 4° C., and the supernatant was obtained as cytoplasm fraction.
(2) Measurement of Specific binding of ^3 H-mibolerone to Prostate Cytoplasm Androgen Receptor
To the cytoplasm fraction obtained in (1) was added ^3 H-mibolerone (87.0 Ci/millimol), so that a final concentration is adjusted to 1 nM, and at the same time, in order to block binding of ^3 H-mibolerone to progestin receptor, triamsinolone acetonide was added to a final concentration of 5 μM, and the final volume was adjusted to 0.4 ml with buffer solution A, and the reaction mixture was incubated for 20 hours at 0° C. After incubation, 0.5 ml of 60% hydroxylapatite slurry (washed and equilibrate with a buffer solution B: 10 mM NaH2 PO4, 20 mM tris-hydrochloric acid, pH 7.2) was added, and incubated for 10 minutes at 0° C., the solution was transferred onto a glass fiber filter, and washed five times with 5 ml portions of buffer solution B containing 0.1% (weight/volume) of Triton X-100, to remove free ^3 H-mibolerone. This glass fiber was transferred into vial, and 10 ml of aquasol- 2 was added, and the radioactivity was measured, and the total binding amount of ^3 H-mibolerone on prostate cytoplasm androgen receptor was determined.
The nonspecific binding amount was determined similarly by adding an unlabeled 5α-DHT in the reaction solution to a final concentration of 1 μM. The difference between the total binding amount and nonspecific binding amount was determined as the specific binding amount on the androgen receptor.
(3) Inhibitory Activity of Sample Compounds on ^3 H-mibolerone Specific Binding
The various concentrations of compounds obtained in the experiments were added simultaneously with ^3 H-mibolerone to incubate same as in (2), and the specific binding amount of ^3 H-mibolerone on androgen receptor was determined. Comparing this value with the value obtained in (2), the IC50 value of inhibitory activity of the compounds on ^3 H-mibolerone specific binding was determined.

Data set [3] in a line: In vitro drug metabolism in rat liver extract. The format is in vitro ADME, male Wistar rats. Conditions: pH 7.4, 37° C.; for remaining at 5 min / remaining at 0.25 h / remaining at 0.5 h / remaining at 1 h: rat liver extract; for remaining at 5 min: read-out: Residual amount of test compound, 5 min.; for remaining at 0.25 h: 15 min., read-out: Residual amount of test compound, 15 min.; for remaining at 0.5 h: 30 min., read-out: Residual amount of test compound, 30 min.; for remaining at 1 h: 60 min., read-out: Residual amount of test compound, 60 min.; for half-life: half-life in the rat liver extract, read-out: Half-time period. As to the method:
2. In vitro drug metabolism in rat liver extract
The resistance of the compound against metabolic degradation by rat liver extract was investigated.
The male Wistar rats (weighing about 200 g) were used after fasting for 24 hours. The rat was sacrificed under ether anesthesia, and the livers were removed and were placed onto the ice.
The liver was minced with scissors under ice-cooling, and homogenized in the presence of 4 volumes of 1.15% KCl-0.1M phosphate buffer (pH 7.4) with a Potter type homogenizer. The homogenates were centrifuged at 9,000×g for 10 minutes at 4° C., and the supernatant filtered through the cheese-cloth was used as an enzyme solution.
The constitution of the reaction mixture was shown in below. 0.1M Buffer was sufficiently bubbled in 95% O2 -5% CO2 gas before use.
Glucose 6-phosphate (60.8 mg.ml)
Nicotineamide (9.16 mg/ml)
The tested samples were dissolved in dimethyl sulfoxide. MgCl2 ·6H2 O was dissolved in a distilled water, and all other reagents were dissolved in 0.1M phosphate buffer. The reaction was initiated by adding enzyme solution, and shaked at 37° C. with 120 cycles/minutes in Spitz test tubes with stoppers. The reaction was stopped by adding methanol after 5, 15, 30 and 60 minutes.
After termination of the reaction, samples were mixed by using of a Vortex mixer, and centrifuged at 3,000 rpm for 10 minutes. The supernatant was applied to a high-performance liquid chromatography of which conditons are shown in below. A residual amount of the mother compound was determined at certain time intervals, whererby half-life of the compound in the rat liver extract was calculated.
Column: Chemcosorb 5C18-300 Å 4.6 mm diameter and 150 mm length
Colume temperature: 50° C.

Broadly, the IC50 is the concentration needed to halve the response being measured.

Molecules are shown by their SMILES. Bounds are passed on as bounds.

In data set [1] (30 mg/kg), `CCc1ccccc1NS(=O)(=O)c1ccc(-c2cnn3c(O)ncnc23)cc1` [Comparative Example 10, reference compound] yielded a concentration at 4 h of 112 ng/mL and a concentration at 8 h of 31 ng/mL. For the same compound, the “Blood Level, 20 minutes” value in data set [1] (20 minutes) was 0 ng/mL. The “Blood Level, 1 hours” value in data set [1] (1 hour) worked out at 0 ng/mL. Also, the “Blood Level, 2 hours” value in data set [1] (2 hours) amounted to 0 ng/mL.

In the case of `Oc1ncnc2c(-c3ccc(Cc4ccccc4)cc3)cnn12` [Example 1, 8-(4-benzylphenyl)-4-hydroxypyrazolo[1,5-a]-1,3,5-triazine], in data set [2], the IC50 worked out at 2.8e-07 M. The concentration at 20 min in data set [1] (30 mg/kg, 20 minutes) came out at 1590 ng/mL. For the same compound, in data set [1] (30 mg/kg, 1 hour), the concentration at 1 h worked out at 2690 ng/mL. In data set [1] (30 mg/kg, 2 hours), this compound displayed a concentration at 2 h of 1250 ng/mL. In addition, in data set [1] (30 mg/kg), the concentration at 4 h turned out to be 1420 ng/mL and the concentration at 8 h turned out to be 731 ng/mL. Also, in data set [3], the remaining at 5 min was determined as 92.2%, the remaining at 0.25 h is 62.4%, the remaining at 0.5 h turned out to be 60.2% and the remaining at 1 h came out at 42.9%. In addition, in data set [3], the half-life came to 0.75 h.

`Oc1ccnc2c(-c3ccc(Cc4ccccc4)cc3)cnn12` [Example 2, 3-(4-benzylphenyl)-7-hydroxypyrazolo[1,5-a]pyrimidine]: the IC50 in data set [2] amounted to 2.8e-07 M. Also, in data set [3], the remaining at 5 min is 81.3%, the remaining at 0.25 h came to 86.1%, the remaining at 0.5 h was 84.2% and the remaining at 1 h stood at 80.2%. Also, in data set [3], the half-life is > 1 h.

Take `CC(c1ccccc1)c1ccc(-c2cnn3c(O)ncnc23)cc1` (stereo not drawn) [Example 19, 4-hydroxy-8-[4-(α-methylbenzyl)phenyl]pyrazolo[1,5-a]-1,3,5-triazine]: in data set [2], the IC50 came to 3.9e-08 M. In data set [3], the remaining at 5 min was determined as 94.4%, the remaining at 0.25 h came to 84.7%, the remaining at 0.5 h was 68.3% and the remaining at 1 h worked out at 42.4%. Further, the half-life in data set [3] was 0.867 h.

For `COc1cccc(Cc2ccc(-c3cnn4c(O)ncnc34)cc2OC)c1` [Example 11], in data set [2], the IC50 was found to be 1.8e-08 M. In addition, in data set [3], the remaining at 5 min was found to be 98.3%, the remaining at 0.25 h came out at 98.8%, the remaining at 0.5 h is 91.5% and the remaining at 1 h was 87.9%. Besides, in data set [3], the half-life was > 1 h.

`COc1cccc(Cc2ccc(-c3cnn4c(O)ncnc34)cc2)c1` [Example 15, 4-hydroxy-8-[4-(3-methoxyphenylmethyl)phenyl]pyrazolo[1,5-a]-1,3,5-triazine]: the IC50 in data set [2] was 9.9e-08 M. Also, in data set [3], the remaining at 5 min was found to be 86.1%, the remaining at 0.25 h came out at 68.9%, the remaining at 0.5 h amounted to 64.7% and the remaining at 1 h is 51.9%. For the same compound, in data set [3], the half-life was > 1 h.

For the compound `COc1cccc(Cc2ccc(-c3cnn4c(O)ncnc34)cc2C)c1` [Example 10, 4-hydroxy-8-[4-(3-methoxyphenylmethyl)-3-methyl]phenylpyrazolo[1,5-a]-1,3,5-triazine], the IC50 in data set [2] was 1.2e-08 M. For the same compound, in data set [3], the remaining at 5 min came out at 77.6%, the remaining at 0.25 h came out at 57.1%, the remaining at 0.5 h was found to be 62% and the remaining at 1 h was determined as 55.2%. Moreover, the half-life in data set [3] is > 1 h.

Consider `Cc1cc(-c2cnn3c(O)ncnc23)ccc1Cc1ccccc1` [Example 5, 8-(4-benzyl-3-methyl)phenyl-4-hydroxypyrazolo[1,5-a]-1,3,5-triazine], for which, in data set [2], the IC50 stood at 3e-08 M. Besides, in data set [3], the remaining at 5 min amounted to 93.7%, the remaining at 0.25 h stood at 89.9%, the remaining at 0.5 h is 82.7% and the remaining at 1 h amounted to 83.8%. Further, the half-life in data set [3] was > 1 h.

Consider `COc1cc(-c2cnn3c(O)ncnc23)ccc1Cc1ccccc1` [Example 4, 8-(4-benzyl-3-methoxy)phenyl-4-hydroxypyrazolo[1,5-a]-1,3,5-triazine], for which the IC50 in data set [2] worked out at 7.4e-08 M. In addition, in data set [3], the remaining at 5 min was determined as 56.9%, the remaining at 0.25 h was 44.6%, the remaining at 0.5 h was 49.9% and the remaining at 1 h came to 38.2%. The half-life in data set [3] was determined as 0.5 h.

Take `COc1cc(-c2cnn3c(O)ncnc23)ccc1Cc1cccc(C)c1` [Example 12]: the IC50 in data set [2] was 2.3e-08 M. Also, in data set [3], the remaining at 5 min is 93%, the remaining at 0.25 h is 91.8%, the remaining at 0.5 h is 97.4% and the remaining at 1 h came to 90.8%. Besides, the half-life in data set [3] is > 1 h.

Turning to `Cc1ccccc1Cc1ccc(-c2cnn3c(O)ncnc23)cc1` [Example 14, 4-hydroxy-8-[4-(2-methylphenylmethyl)phenyl]pyrazolo[1,5-a]-1,3,5-triazine], in data set [2], the 50% inhibitory concentration (IC50) is 6.4e-07 M. In data set [3], the remaining at 5 min worked out at 82.9%, the remaining at 0.25 h amounted to 77.8%, the remaining at 0.5 h stood at 82.5% and the remaining at 1 h is 55.5%. In addition, in data set [3], the half-life is > 1 h.
